Laboratory results published in PubChem BioAssay AID248 (DTP/NCI, 2004).
“And” between values parts separate entries of the source, which are not always exact repeats. Equal values may be shown once. Toxic doses and inconclusive results are not listed. No stated cut-off is given here; in the data, active means T/C of 150% or more; inactive means T/C below 125%.

Tested on: L1210 leukemia ip in BDF1 mice, survival T/C
Experiment: NCI In Vivo Anticancer Drug Screen. Data for tumor model L1210 Leukemia (intraperitoneal) in B6D2F1 (BDF1) mice
Settings: endpoint: mean survival time, higher = longer survival
In short: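 Tumor was transplanted into mice, which were then dosed with test compound or vehicle alone. Survival was recorded for each group, and the treated figure was expressed relative to the control figure.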

[1] = dose: 100.0 mg/kg/injection, schedule: Q01DX009 (ip), vehicle: Klucel (hydroxypropylcellulose) (HPC)
[2] = dose: 100.0 mg/kg/injection, schedule: Q04DX003 (ip), vehicle: Klucel (hydroxypropylcellulose) (HPC)
[3] = dose: 200.0 mg/kg/injection, schedule: Q01DX009 (ip), vehicle: Klucel (hydroxypropylcellulose) (HPC)
[4] = dose: 200.0 mg/kg/injection, schedule: Q04DX003 (ip), vehicle: Klucel (hydroxypropylcellulose) (HPC)
[5] = dose: 400.0 mg/kg/injection, schedule: Q01DX009 (ip), vehicle: Klucel (hydroxypropylcellulose) (HPC)
[6] = dose: 400.0 mg/kg/injection, schedule: Q04DX003 (ip), vehicle: Klucel (hydroxypropylcellulose) (HPC)
[7] = dose: 100.0 mg/kg/injection, schedule: Q01DX001 (ip), vehicle: other
[8] = dose: 200.0 mg/kg/injection, schedule: Q01DX001 (ip), vehicle: other
[9] = dose: 100.0 mg/kg/injection, schedule: Q04DX002 (ip), vehicle: saline with Tween-80
[10] = dose: 100.0 mg/kg/injection, schedule: Q01DX009 (ip), vehicle: saline with Tween-80
[11] = dose: 200.0 mg/kg/injection, schedule: Q01DX009 (ip), vehicle: saline with Tween-80
[12] = dose: 400.0 mg/kg/injection, schedule: Q01DX009 (ip), vehicle: saline with Tween-80
[13] = dose: 25.0 mg/kg/injection, schedule: Q04DX002 (ip), vehicle: saline with Tween-80
[14] = dose: 12.5 mg/kg/injection, schedule: Q01DX009 (ip), vehicle: Klucel (hydroxypropylcellulose) (HPC)
[15] = dose: 25.0 mg/kg/injection, schedule: Q01DX009 (ip), vehicle: Klucel (hydroxypropylcellulose) (HPC)
[16] = dose: 100.0 mg/kg/injection, schedule: Q04DX003 (ip), vehicle: saline with Tween-80
[17] = dose: 200.0 mg/kg/injection, schedule: Q04DX003 (ip), vehicle: saline with Tween-80

Measured: T/C

CCCCCCCCCCCCCCCC[N+]1(C)CCSCC1
inactive: dose: 0.78 mg/kg/injection, schedule: Q01DX009 (ip), vehicle: saline 104 % of control | dose: 1.56 mg/kg/injection, schedule: Q01DX009 (ip), vehicle: saline 111 % of control | dose: 3.13 mg/kg/injection, schedule: Q01DX009 (ip), vehicle: saline 114 % of control | dose: 6.25 mg/kg/injection, schedule: Q01DX009 (ip), vehicle: saline 104 % of control

CC(=O)OCC(COC(C)=O)(OC(COC(C)=O)(COC(C)=O)c1ccc(C)c(C)c1)c1ccc(C)c(C)c1
inactive: dose: 50.0 mg/kg/injection, schedule: Q01DX001 (ip), vehicle: saline 97 % of control | dose: 100.0 mg/kg/injection, schedule: Q01DX001 (ip), vehicle: saline 100 % of control | dose: 200.0 mg/kg/injection, schedule: Q01DX001 (ip), vehicle: saline 97 % of control | dose: 400.0 mg/kg/injection, schedule: Q01DX001 (ip), vehicle: saline 100 % of control

CCSC(=O)C1OC(n2cnc3c(N)ncnc32)C2OC(C)(C)OC12 (configuration not stated)
inactive: dose: 100.0 mg/kg/injection, schedule: Q01DX005 (ip), vehicle: saline 100 % of control | dose: 200.0 mg/kg/injection, schedule: Q01DX005 (ip), vehicle: saline 102 % of control

O=S(=O)(O)c1ccc(Nc2ccccc2)cc1
inactive: [1] 103 % of control and 100 % of control | [2] 107 % of control and 103 % of control | [3] 103 % of control and 102 % of control | [4] 96 % of control and 103 % of control | [5] 108 % of control and 102 % of control | [6] 102 % of control and 101 % of control

CCOC(=O)CCCCCCCCCC[N+](CC)(CC)CC(=O)c1ccc(NC(C)=O)cc1
inactive: dose: 75.0 mg/kg/injection, schedule: Q01DX001 (ip), vehicle: other 96 % of control | dose: 150.0 mg/kg/injection, schedule: Q01DX001 (ip), vehicle: other 101 % of control

N#CC(OS(=O)(=O)c1ccccc1)c1ccccc1 (configuration not stated)
inactive: dose: 50.0 mg/kg/injection, schedule: Q01DX001 (ip), vehicle: other 89 % of control | [7] 97 % of control | [8] 105 % of control

CCCN(CCC)P(c1ccccc1)N(CCC)CCC
inactive: [9] 93 % of control | dose: 200.0 mg/kg/injection, schedule: Q04DX002 (ip), vehicle: saline with Tween-80 101 % of control

Cc1ccc(C2(C(=O)O)CC2)cc1
inactive: [10] 100 % of control | [11] 97 % of control | [12] 94 % of control

CCCCCCC[CH2][Sn]1([CH2]CCCCCCC)[O]OC(c2ccccc2)[O]1 (configuration not stated)
inactive: dose: 6.25 mg/kg/injection, schedule: Q04DX002 (ip), vehicle: saline with Tween-80 102 % of control | dose: 12.5 mg/kg/injection, schedule: Q04DX002 (ip), vehicle: saline with Tween-80 98 % of control | [13] 91 % of control

CC(C)=CCC/C(C)=C/CC(N)Cc1ccccc1 (configuration not stated)
inactive: [14] 94 % of control | [15] 97 % of control | dose: 50.0 mg/kg/injection, schedule: Q01DX009 (ip), vehicle: Klucel (hydroxypropylcellulose) (HPC) 92 % of control

C/C(C(=O)O)=C(/Br)c1ccc([N+](=O)[O-])cc1
inactive: [1] 94 % of control | [2] 94 % of control | [3] 95 % of control | [4] 100 % of control | [5] 92 % of control | [6] 100 % of control

CC1(C)C/C(=C\c2ccc(Br)cc2)C(=O)c2ccccc21
inactive: [1] 98 % of control | [2] 106 % of control | [3] 95 % of control | [4] 106 % of control | [5] 101 % of control | [6] 104 % of control

Cc1oc2ccc(O)c(N=Nc3ccc(Cl)cc3)c2c1C
inactive: [2] 100 % of control | [4] 90 % of control | [6] 95 % of control

O=Cc1ccc(OC(=O)Nc2ccc([N+](=O)[O-])cc2)cc1
inactive: [1] 92 % of control | [3] 90 % of control | [5] 95 % of control

COC1OC2COC(c3ccccc3)OC2C(NC(C)=O)C1OS(C)(=O)=O (configuration not stated)
inactive: dose: 100.0 mg/kg/injection, schedule: Q04DX002 (ip), vehicle: Klucel (hydroxypropylcellulose) (HPC) 101 % of control | dose: 200.0 mg/kg/injection, schedule: Q04DX002 (ip), vehicle: Klucel (hydroxypropylcellulose) (HPC) 101 % of control | dose: 400.0 mg/kg/injection, schedule: Q04DX002 (ip), vehicle: Klucel (hydroxypropylcellulose) (HPC) 105 % of control

O=C(CN1CCOCC1)Nc1ccc(S(=O)(=O)c2ccc([N+](=O)[O-])cc2)cc1
inactive: dose: 75.0 mg/kg/injection, schedule: Q01DX001 (ip), vehicle: acetone 93 % of control | dose: 150.0 mg/kg/injection, schedule: Q01DX001 (ip), vehicle: acetone 93 % of control

CC(C)C(C=NCC(CCN1CCOCC1)(c1ccc2ccccc2c1)C(C)C)(CCN1CCOCC1)c1ccc2ccccc2c1 (configuration not stated)
inactive: [13] 92 % of control | dose: 50.0 mg/kg/injection, schedule: Q04DX002 (ip), vehicle: saline with Tween-80 98 % of control | [9] 92 % of control

C/C(=N/NC(=O)C1CCCO1)c1ccc(C)cc1 (configuration not stated)
inactive: [14] 104 % of control | [15] 102 % of control

Cc1nc2c(=O)n(C)c(=O)n(C)c2n1C
inactive: dose: 50.0 mg/kg/injection, schedule: Q01DX009 (ip), vehicle: saline with Tween-80 101 % of control | [10] 98 % of control | [16] 100 % of control | [11] 100 % of control | [17] 98 % of control

CC1(C)N=C(N)N=C(N)N1c1ccc(OCCNS(=O)(=O)c2ccc(S(=O)(=O)F)cc2)c(Cl)c1
inactive: [16] 105 % of control

Brc1ccc2c(c1)-c1ccccc1C1=NCCN12
inactive: dose: 5.0 mg/kg/injection, schedule: Q01DX009 (ip), vehicle: Klucel (hydroxypropylcellulose) (HPC) 100 % of control | dose: 10.0 mg/kg/injection, schedule: Q01DX009 (ip), vehicle: Klucel (hydroxypropylcellulose) (HPC) 101 % of control | dose: 20.0 mg/kg/injection, schedule: Q04DX003 (ip), vehicle: Klucel (hydroxypropylcellulose) (HPC) 86 % of control

CC(=O)OCC(I)CC(F)(F)C(F)(F)C(F)(F)F (configuration not stated)
inactive: dose: 100.0 mg/kg/injection, schedule: Q01DX001 (ip), vehicle: saline with Tween-80 98 % of control | dose: 200.0 mg/kg/injection, schedule: Q01DX001 (ip), vehicle: saline with Tween-80 103 % of control | dose: 400.0 mg/kg/injection, schedule: Q01DX001 (ip), vehicle: saline with Tween-80 116 % of control

CC(C)CN(C)N=Nc1ccc(C(N)=O)cc1
inactive: [7] 100 % of control | [8] 91 % of control

O=c1[nH]cccc1[N+](=O)[O-]
inactive: [10] 95 % of control | [11] 90 % of control | [12] 95 % of control

CCCCCCCCCC[n+]1ccc(C(N)=O)cc1
inactive: dose: 5.0 mg/kg/injection, schedule: Q01DX009 (ip), vehicle: saline with Tween-80 97 % of control | dose: 5.0 mg/kg/injection, schedule: Q04DX003 (ip), vehicle: saline 97 % of control | dose: 10.0 mg/kg/injection, schedule: Q01DX009 (ip), vehicle: saline with Tween-80 96 % of control | dose: 10.0 mg/kg/injection, schedule: Q04DX003 (ip), vehicle: saline 94 % of control | dose: 20.0 mg/kg/injection, schedule: Q01DX009 (ip), vehicle: saline with Tween-80 96 % of control | dose: 20.0 mg/kg/injection, schedule: Q04DX003 (ip), vehicle: saline 103 % of control

O=C(O)C(Br)C(Br)c1ccc([N+](=O)[O-])cc1 (configuration not stated)
inactive: dose: 100.0 mg/kg/injection, schedule: Q04DX002 (ip), vehicle: gum acacia 103 % of control | dose: 200.0 mg/kg/injection, schedule: Q04DX002 (ip), vehicle: gum acacia 107 % of control | dose: 400.0 mg/kg/injection, schedule: Q04DX002 (ip), vehicle: gum acacia 90 % of control

CC1(C)C(=O)C=C(c2ccccc2)C1(O)c1ccccc1 (configuration not stated)
inactive: [16] 99 % of control | [17] 96 % of control | dose: 400.0 mg/kg/injection, schedule: Q04DX003 (ip), vehicle: saline with Tween-80 96 % of control

NC(=O)Oc1ccc(Cc2ccccc2)cc1
inactive: [1] 97 % of control | [2] 95 % of control | [3] 103 % of control | [4] 97 % of control | [5] 110 % of control | [6] 95 % of control

C/C(=N\N=C(N)N)c1ccccc1
inactive: dose: 15.0 mg/kg/injection, schedule: Q01DX Z (oral), vehicle: carboxymethylcellulose (CMC) 102 % of control | dose: 30.0 mg/kg/injection, schedule: Q01DX Z (oral), vehicle: carboxymethylcellulose (CMC) 97 % of control
